Literature values in patent publication EP1935424A1, “PHARMACEUTICAL COMPOSITIONS COMPRISING COMBINED ANTIDIABETIC SUBSTANCES FOR USE IN DIABETES MELLITUS” (ESPINOZA ABDALA, Leopoldo de Jesús, priority 2005, dated 2007).
Read-outs that look alike come from different tables or passages of the source.

What was measured:
[1] = system: plasma proteins
[2] = for metabolized by: enzymes named; for bioavailability / tmax (plasma peak following administration): oral; for half-life (clearance half-life in plasma): parent compound; for absorption: oral / gastrointestinal tract, in words; for eliminated by renal route without being metabolized: share of the administered dose as non-metabolized drug
[3] = route of clearance, table Sulfonylureas: Pharmacokinetc Properties
[4] = table Sulfonylureas: Pharmacokinetc Properties, unit not given

SMILES | binds to plasma proteins [1] | metabolized by [2] | tmax (plasma peak following administration) [2] [h] | half-life (clearance half-life in plasma) [2] | Clearance [2, 3] | Action duration [2, 4] | further results
CCc1ccc(CCOc2ccc(CC3SC(=O)NC3=O)cc2)nc1 (centres unmarked) [Pioglitazone] | more than 99% | CYP3A4 and CYP2C9 | 2 | 5 to 6 h | – | – | bioavailability [2]: ~80%; clearance half-life for the metabolites ([2]; three active metabolites): 16 to 24 h
CCOc1cc(CC(=O)N[C@@H](CC(C)C)c2ccccc2N2CCCCC2)ccc1C(=O)O [Repaglinide] | more than 98% | cytochrome P450 and by glucuronidases | 1 | about 1 hours | – | – | eliminated, time following administration ([2]; in vivo): 4 to 6 h; absorption [2]: rapidly absorbed; insulinotropic response to a meal occurs after taking an oral dose ([2]; patients with type 2 diabetes, oral dose): ≤ 30 min
CCC1=C(C)CN(C(=O)NCCc2ccc(S(=O)(=O)NC(=O)N[C@H]3CC[C@H](C)CC3)cc2)C1=O [Glimepiride] | – | – | – | – | Hepatic and renal | 24 | –
COc1ccc(Cl)cc1C(=O)NCCc1ccc(S(=O)(=O)NC(=O)NC2CCCCC2)cc1 [Glibenclamide] | – | – | – | – | – | – | Action duration ([2]; in vivo): 12-16; Clearance ([2]; in vivo): Hepatic
CCCNC(=O)NS(=O)(=O)c1ccc(Cl)cc1 [Chlorpropamide] | – | – | – | 24 to 48 h | Hepatic and renal | 24-72 | eliminated by renal route without being metabolized [2]: about 20%
C[C@H]1O[C@H](O[C@H]2[C@H](O)[C@@H](O)[C@@H](O[C@H]3[C@H](O)[C@@H](O)C(O)O[C@@H]3CO)O[C@@H]2CO)[C@H](O)[C@@H](O)[C@@H]1N[C@H]1C=C(CO)[C@@H](O)[C@H](O)[C@H]1O (some centres unmarked) [Acarbose] | – | – | – | – | – | – | absorbed orally ([2]; in vivo, po): < 2%; absorption [2]: poorly absorbed orally
Cc1cnc(C(=O)NCCc2ccc(S(=O)(=O)NC(=O)NC3CCCCC3)cc2)cn1 [Glipizide] | – | – | – | – | – | 5-10 | –
CN(C)C(=N)N=C(N)N [Metformin] | – | – | – | – | – | – | absorption is completed in ([2]; gastrointestinal tract): about 6 hours; excreted by renal route ([2]; of an oral dose in 12 hours): 90%
COc1ccc2c(c1)C(=O)N(CCc1ccc(S(=O)(=O)NC(=O)NC3CCCCC3)cc1)C(=O)C2(C)C [Gliquidone] | – | – | – | – | Hepatic | 2-4 | –
CN(CCOc1ccc(CC2SC(=O)NC2=O)cc1)c1ccccn1 (centres unmarked) [Rosiglitazone] | 99.8% | cytochrome P450 isoenzymes 2C8 and 2C9 | 1 | 3 to 4 h | – | – | eliminated in feces ([2]; in vivo): 23%; eliminated in urine ([2]; in vivo): 64%; bioavailability [2]: 99%
CC(C)[C@H]1CC[C@H](C(=O)N[C@H](Cc2ccccc2)C(=O)O)CC1 [Nateglinide] | 97% | CYP3A4 and CYP2C9 | 1 | about 1.5 hours | – | – | bioavailability [2]: greater than 70%; absorption [2]: rapidly absorbed; eliminated by renal route without being metabolized [2]: About 16%
Cc1ccc(S(=O)(=O)NC(=O)NN2CC3CCCC3C2)cc1 (centres unmarked) [Glicazide] | – | – | – | – | Hepatic | 12-13 | –
